Source: US6407091B1, “β-lactamase inhibiting compounds” (Research Corporation Technologies, Inc., priority 1999, dated 2002)
pIC50: −log10 of the molar value. Where a name gives a salt, the structure may show the parent alone. Read-outs that look alike come from different tables or passages of the source.

Key:
[1] = target: Class C β-lactamase of Enterobacter cloacae P-99 (Enterobacter cloacae, UniProt P05364); test: IC50 for inhibition of Class C β-lactamase of Enterobacter cloacae P-99 (nitrocefin hydrolysis); assay type: biochemical
Chain of Class C β-lactamase of Enterobacter cloacae P-99 (P05364 21-381): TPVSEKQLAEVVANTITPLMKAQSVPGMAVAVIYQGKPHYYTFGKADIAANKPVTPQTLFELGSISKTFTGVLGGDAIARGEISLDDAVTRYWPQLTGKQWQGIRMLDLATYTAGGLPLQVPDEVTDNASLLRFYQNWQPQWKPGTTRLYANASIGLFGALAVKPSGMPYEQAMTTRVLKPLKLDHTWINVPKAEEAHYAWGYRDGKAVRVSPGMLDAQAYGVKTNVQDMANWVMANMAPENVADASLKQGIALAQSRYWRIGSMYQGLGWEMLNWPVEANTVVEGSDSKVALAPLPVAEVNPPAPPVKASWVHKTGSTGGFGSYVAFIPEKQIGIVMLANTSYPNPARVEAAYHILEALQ
Description: (§1) Representative compounds of formula I were evaluated as inhibitors of the Class C β-lactamase of Enterobacter cloacae P-99, a cephalosporinase, and TEM-1, a penicillinase, by relative IC50 analysis. The IC50 value represents the concentration of inhibitor required to effect a 50% loss of activity of free enzyme. The IC50 value of each compound was determined as follows. Following a 10 minute incubation of a dilute solution of enzyme (2.56 nM) and inhibitor (<0.64 mM), a […] of this incubation mixture was then further diluted into 1 mL nitrocefin solution, and the rate of hydrolysis was measured during a 1 minute period by monitoring the absorbance of nitrocefin as a function of time.

TEM-1, a penicillinase = TEM-1, a penicillinase (Escherichia coli, UniProt P62593); test: IC50 for inhibition of TEM-1 β-lactamase (nitrocefin hydrolysis); assay type: biochemical; details: read-out: IC50 Values for Inhibition of β-lactamase Derived from TEM-1
Chain of TEM-1, a penicillinase (P62593 24-286 limits assumed): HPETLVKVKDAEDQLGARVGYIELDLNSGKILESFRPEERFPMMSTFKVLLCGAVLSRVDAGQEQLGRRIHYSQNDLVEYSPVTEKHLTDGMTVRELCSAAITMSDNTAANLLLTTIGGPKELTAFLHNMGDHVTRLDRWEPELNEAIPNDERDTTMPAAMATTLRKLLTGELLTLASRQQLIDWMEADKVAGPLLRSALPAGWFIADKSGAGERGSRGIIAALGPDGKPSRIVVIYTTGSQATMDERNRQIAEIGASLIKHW
Description: as §1

[2] = read-out: IC50 Values for Inhibition of β-lactamase Derived from P-99
[3] = Table 1, 10 minute incubation of enzyme (2.56 nM) and inhibitor, nitrocefin hydrolysis, relative to tazobactam standard, read-out: IC50 Values for Inhibition of β-lactamase Derived from P-99
[4] = Table 1, 10 minute incubation of enzyme (2.56 nM) and inhibitor, nitrocefin hydrolysis, relative to tazobactam standard
[5] = Table 2, compounds of formula IV, procedure similar to Table 1
[6] = Table 2, compounds of formula IV, procedure similar to Table 1, read-out: IC50 Values for Inhibition of β-lactamase Derived from P-99

For C=C1C(COC(C)=O)=C(C(=O)O)N2C(=O)C(=Cc3ccccn3)C2S1(=O)=O (stereo not shown) [Compound 6a, Sodium Salt of 7-[(Z)-(2′-Pyridyl)methylene]-2-(exomethylidene)cephalosporanic Acid Sulfone], the pIC50 [1] was 6.78.

In the case of C=C1C(COC(C)=O)=C(C(=O)O)N2C(=O)C(=CC(=O)OC(C)(C)C)C2S1(=O)=O (stereo not shown) [Compound 6b, Sodium Salt of 7-[(Z)-(tert-Butoxycarbonyl)methylene]-2-(exomethylidene)cephalosporinate Sulfone], the pIC50 [1, 2] was 5.81.

Work on C=C1C(C)=C(C(=O)O)N2C(=O)C(=Cc3ccccn3)C2S1(=O)=O (stereo not shown) [Compound 6c, Sodium Salt of 7-((Z)-(2″-Pyridinyl)methylene]-3′-desacetoxy-2-(exomethylidene)cephalosporinate Sulfone] yielded a pIC50 [1, 2] of 7.41.

C=C1C(C)=C(C(=O)O)N2C(=O)C(=CC(=O)OC(C)(C)C)C2S1(=O)=O (stereo not shown) [Compound 6d, Sodium Salt of 7-[(Z)-(tert-Butoxycarbonyl)methylene]-3′-desacetoxy-2(exomethylidene)cephalosporinate Sulfone] showed a pIC50 [1, 2] of 4.31.

With C=C1C(CSc2nnnn2C)=C(C(=O)O)N2C(=O)C(=CC(=O)OC(C)(C)C)C2S1(=O)=O (stereo not shown) [Compound 6f, Sodium Salt of Benzhydryl 7-[(Z)-(tert-Butylcarboxy)methylene]-3′-desacetoxy-2-exomethylidene-3′-[1″-methyl-1″H-tetrazol-5″-yl)thio]cephalosporinate Sulfone] the pIC50 [1, 2] was 5.62.

C=C1C(COC(C)=O)=C(C(=O)O)N2C(=O)/C(=C/C(=O)O)C2S1(=O)=O (stereo not shown) [Compound 6h, Disodium Salt of 7-[(Z)-(Carboxy)methylene]-2-(exomethylidene)-cephalosporinate Sulfone] gave a pIC50 [1, 3] of 5.60 and a pIC50 (TEM-1, a penicillinase; [4]) of 3.30.

C=C1C(C)=C(C(=O)O)N2C(=O)/C(=C/C(=O)O)C2S1(=O)=O (stereo not drawn) [Compound 6i, Disodium Salt 7-[(Z)(Carboxy)methylene]-3′-desacetoxy-2-(exo-methylidene)cephalosporinate Sulfone] showed a pIC50 [1, 3] of 4.43 and a pIC50 (TEM-1, a penicillinase; [4]) of 3.56.

N#C/C=C/C1=C(C(=O)O)N2C(=O)/C(=C/c3ccccn3)C2S(=O)(=O)C1 (stereo not shown) [Compound 13a, Sodium 3-[2′E-(Cyanoethenyl)]-1,1-dioxo-7Z-[(2″-pyridyl)methylidene]-3-cephem-4-carboxylate] gave a pIC50 [1] of 8.00 and a pIC50 (TEM-1, a penicillinase; [5]) of 5.57.

For COC(=O)/C=C/C1=C(C(=O)O)N2C(=O)/C(=C/c3ccccn3)C2S(=O)(=O)C1 (stereo not shown) [Compound 13b, Sodium 1,1-Dioxo-3-[2′E-(methoxycarbonylethenyl)]-7Z-[(2″-pyridyl)methylidene]-3-cephem-4-carboxylate], the pIC50 [1] was 6.70 and the pIC50 (TEM-1, a penicillinase; [5]) was 7.70.

Work on O=C(O)C1=C(/C=C/c2cccc[n+]2[O-])CS(=O)(=O)C2/C(=C\c3ccccn3)C(=O)N12 (stereo not shown) [Compound 13c, Sodium 1,1-Dioxo-3-{2′E-[2″-(pyridin-N-oxide)ethenyl]}-7Z-[(2′″-pyridyl)methylidene]-3-cephem-4-carboxylate] yielded a pIC50 [1, 6] of 6.22 and a pIC50 (TEM-1, a penicillinase; [5]) of 8.22.

CC(C)(C)OC(=O)/C=C/C1=C(C(=O)O)N2C(=O)/C(=C/c3ccccn3)C2S(=O)(=O)C1 (stereo not shown) [Compound 13e, Sodium 1,1-Dioxo-3-[2′E-(t-butoxycarbonylethenyl)]-7Z-[(2″-pyridyl)methylidene]-3-cephem-4-carboxylate] was tested, and the pIC50 [1, 6] was 5.83.

Molecule COC(=O)/C(Cl)=C/C1=C(C(=O)O)N2C(=O)/C(=C/c3ccccn3)C2S(=O)(=O)C1 (stereo not shown) [Compound 13f] has a pIC50 [1, 6] of 6.70 and a pIC50 (TEM-1, a penicillinase; [5]) of 7.70.

Molecule O=C(O)/C=C/C1=C(C(=O)O)N2C(=O)/C(=C/c3ccccn3)C2S(=O)(=O)C1 (stereo not shown) [Compound 13g, Disodium 3-[2′E-Carboxyethenyl]-1,1-dioxo-7Z-[(2″-pyridyl)methylidene]-3-cephem-4-carboxylate] has a pIC50 [1, 6] of 6.51 and a pIC50 (TEM-1, a penicillinase; [5]) of 5.60.

For N#CC1=C(C(=O)O)N2C(=O)/C(=C/c3ccccn3)C2S(=O)(=O)C1 (stereo not shown) [Compound 19, Sodium 1,1-Dioxo-3-cyano-7Z-[(2′-pyridyl)methylidene]-3-cephem-4-carboxylate], the pIC50 [1] was 7.54 and the pIC50 (TEM-1, a penicillinase; [5]) was 5.63.

In the case of CC(=O)OCC1=C(C(=O)O)N2C(=O)C(=Cc3ccccn3)C2S(=O)(=O)C1 (stereo not shown) [II: R1=2-pyr, R3=CH2OAc, reference compound], the pIC50 [1] was 5.87 and the pIC50 (TEM-1, a penicillinase) was 4.84.

Molecule CC1=C(C(=O)O)N2C(=O)/C(=C/c3ccccn3)C2S(=O)(=O)C1 (stereo not shown) [II: R1=2-pyr, R3=CH3, reference compound] has a pIC50 [1] of 5.21 and a pIC50 (TEM-1, a penicillinase) of 3.42.

Work on Cn1nnnc1SCC1=C(C(=O)O)N2C(=O)C(=CC(=O)OC(C)(C)C)C2S(=O)(=O)C1 (stereo not shown) [II: R1=CO2-t-Bu, R3=CH2S(C2N4H3), reference compound] yielded a pIC50 [1] of 3.95 and a pIC50 (TEM-1, a penicillinase) of 6.91.

For CC1=C(C(=O)O)N2C(=O)C(=CC(=O)OC(C)(C)C)C2S(=O)(=O)C1 (stereo not shown) [II: R1=CO2-t-Bu, R3=CH3, reference compound], the pIC50 [1] was 3.70 and the pIC50 (TEM-1, a penicillinase) was 3.95.

Molecule C=C1C(=O)N2C(C(=O)O)=C(COC(C)=O)C(=C)S(=O)(=O)C12 (stereo not shown) [III: R3=CH2OAc, reference compound] has a pIC50 [1] of 3.50 and a pIC50 (TEM-1, a penicillinase) of less than 2.70.

For “Sodium [2-1(Bisthiomethyl)exomethylene]-7-[(Z)-(2″-pyridinyl)methylene]-3′-desacetoxycephalosporinate [Compound 6g]”, the pIC50 [1, 3] was 6.29 and the pIC50 (TEM-1, a penicillinase; [4]) was 3.76.
